Test results: paper PMC7515829, “HKDC1 C-terminal based peptides inhibit extranodal natural killer/T-cell lymphoma by modulation of mitochondrial function and EBV suppression” (Leukemia, 2020)

Columns and labels:
EBV Zta = experiment: Protein level in xenograft tumor tissue (western blot); type: in vivo; settings: SNK6 xenograft, Balb/c athymic nude mice; intratumoral 50 µM peptide, 20 µl per tumor, every 2 days from day ~18; tissue day 50; western blot vs CTL; n = 5
Source text: (§1) Biomedical analysis of tumor tissues.

SNK6 cells [1] = experiment: Peptide delivery efficiency, 125I-labeled uptake assay; type: in vitro ADME, human; settings: 125I label on tyrosine, 0.5 µM peptide, 6-h incubation, media and cells counted by liquid scintillation counter, mean, n = 4 (Fig S1)
Source text: We investigated the potential role of HKDC1-based peptides in ENKTL cells that were isolated from the MNCs of ENKTL patients or SNK6 cell line. Three different kinds of HKDC1-based targeting peptides, including the last 15 aa at either the N-terminal (HKN15) or C-terminal (HKC15), or the last eight aa at the C-terminal (HKC8) were selected; four different kinds of cell-penetrating sequences were employed to deliver the HKDC1-based peptides, including Antp (a 16 penetrating residue long sequence from the Drosophila antennapedia-homeodomain), penetration-accelerating segment, TAT (HIV-1 TAT sequence), and Tf (the Tf receptor (TfR) internalization sequence) sequences. All of the aa with the D-configuration (marked as D) were synthesized as retro-inverso peptides. […] We then evaluated the toxic effect of two peptides (including Tf-D-HKC15 and Tf-D-HKC8) on different kinds of primary and cancer cell lines (see details in Table 2). […] We also evaluated the peptide delivery efficiency using ^125I-labeled uptake assay for both Tf-D-HKC8 and Tf-D-HKC15 peptides. […]
Figure S1. […] 0.5µM each of peptide was incubated with SNK6 cells for 6 hours, then both culture media and SNK6 cells were harvested for radioactivity assay using Liquid Scintillation Counter. n=4. *, P<0.05, vs Intracellular group. Results were expressed as mean ± SEM.

SNK6 xenograft [2] = experiment: SNK6 xenograft tumor volume; type: in vivo, mouse; settings: nude mice, n = 5; for tumor volumes on day 36: intratumoral 50 µM peptide every 2 days from day ~18, day 36, vs CTL; for tumor volumes on day 48: intratumoral 50 µM peptide every 2 days from day ~18, day 48, vs CTL
Protocol: To measure malignant SNK6 xenograft growth, 100 µl of 1 × 10^5 SNK6 cells in PBS were mixed with 100 µl growth factor-reduced basement membrane matrix (Matrigel™, BD Biosciences) resulting in 200 µl of solution that was injected subcutaneously along the mouse flank at each intended tumor site. Tumor size was measured using a digital caliper and volume was calculated, and mice were randomly divided into four groups (n = 9 per group) when the tumor volume reached 50–100 mm^3 on day ~18 after tumor inoculation and given treatment as follows: Group 1 (control (CTL)) was intratumorally injected with HBSS buffer (5.33 mM KCl, 0.44 mM KH2PO4, 138 mM NaCl, 4 mM NaHCO3, 0.3 mM Na2HPO4, and 5.6 mM glucose, pH 7.3) containing 0.05% DMSO; Group 2 (Tf-D-HKN15) received HBSS buffer containing 0.05% DMSO with 50 µM Tf-D-HKN15 peptides; Group 3 (Tf-D-HKC15) received HBSS buffer containing 0.05% DMSO with 50 µM Tf-D-HKC15 peptides; Group 4 (Tf-D-HKC8) received HBSS buffer containing 0.05% DMSO with 50 µM Tf-D-HKC8 peptides. The xenografts were injected (two points, 20 µl per tumor) every 2 days. Beginning on the day of inoculation, mouse weight and tumor volume were monitored every 2 days. Mice were monitored for changes in body weight and sacrificed when values fell below 20% of their initial weight; the survival curve was calculated and the final tumor tissues were isolated for biomedical analysis.
To measure the malignant SNK6 xenograft growth, the 100µl of 1x10^5 SNK6 cells in PBS were mixed with 100µl growth factor-reduced basement membrane matrix (Matrigel™, BD Biosciences) resulting in 200µl of solution that was injected subcutaneously along the mouse flank at each intended tumor site. Tumor size was measured using a digital caliper and volume was calculated, and mice were randomly divided into 4 groups (n=9 per group) when the tumor volume reached 50-100 mm^3 on day ~18 after tumor inoculation: Group 1 (CTL) was intratumorally injected with HBSS buffer (5.33 mM KCl, 0.44 mM KH2PO4, 138 mM NaCl, 4 mM NaHCO3, 0.3 mM Na2HPO4, and 5.6 mM glucose, pH 7.3) containing 0.05% DMSO; Group 2 (Tf-D-HKN15) received HBSS buffer containing 0.05% DMSO with 50 µM Tf-D-HKN15 peptides; Group 3 (Tf-D-HKC15) received HBSS buffer containing 0.05% DMSO with 50 µM Tf-D-HKC15 peptides; Group 4 (Tf-D-HKC8) received HBSS buffer containing 0.05% DMSO with 50 µM Tf-D-HKC8 peptides. The xenografts were injected (two points, 20 µL per tumor) every two days. Beginning on the day of inoculation, mouse weight and tumor volume were monitored every 2 days. Mice were monitored for changes in body weight and sacrificed when values fell below 20% of their initial weight, the survival curve was calculated and the final tumor tissues were isolated for biomedical analysis.

HKDC1/VDAC1 = HKDC1/VDAC1 (Homo sapiens, UniProt P21796); experiment: IP/WB association of HKDC1 with VDAC1 in SNK6 cells; type: cell-based; design: endogenous in cells; host or cells: SNK6; settings: 0.5 µM peptide, 6 h, vs CTL, n = 5 (Fig. 4c, d)
Sequence of HKDC1/VDAC1 (P21796 2-283 limits assumed): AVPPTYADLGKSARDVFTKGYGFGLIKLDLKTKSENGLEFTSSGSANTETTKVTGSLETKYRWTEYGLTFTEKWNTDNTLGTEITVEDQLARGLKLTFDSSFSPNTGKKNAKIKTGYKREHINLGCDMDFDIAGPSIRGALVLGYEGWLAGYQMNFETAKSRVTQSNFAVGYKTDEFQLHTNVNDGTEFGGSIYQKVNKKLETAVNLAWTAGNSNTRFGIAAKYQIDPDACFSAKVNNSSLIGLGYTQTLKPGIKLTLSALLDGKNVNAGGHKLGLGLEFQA
Protocol: Immunoprecipitation (IP) and Western Blotting (WB). Cell lysates were pre-cleared by pre-immune IgG plus Protein A agarose beads for 2 hours, and the supernatants were immunoprecipitated by the indicated antibodies and a 50% slurry of Protein A Agarose beads overnight at 4 °C (9). After washing with buffer containing 50 mM Tris, pH 7.5, 150 mM NaCl, 1% NP-40, and 0.5% deoxycholate with protease inhibitors, proteins were released, separated on 10% SDS-PAGE gels, blotted by primary antibodies, and then simultaneously incubated with the differentially labeled species-specific secondary antibodies, anti-RABBIT IRDye™ 800CW (green) and anti-MOUSE (or goat) ALEXA680 (red). Membranes were scanned and quantitated by the ODYSSEY Infrared Imaging System (LI-COR, NE) (10).

SNK6 cells [3] = experiment: Apoptosis rate by TUNEL assay; type: cell-based, human; settings: 0.5 µM peptide, 6 h, compared with CTL group, n = 5 (Fig. 4h)
Protocol: (§2) Measurement of apoptosis and cell death. Apoptosis was evaluated by TUNEL assay using the In Situ Cell Death Detection Kit™ (Roche). Cells were fixed in 4% paraformaldehyde and labeled with TUNEL reagents. Stained cells were photographed by a fluorescence microscope (11). For cell death analysis, the propidium iodide (PI) staining was performed by addition of 6.25 µg/ml of PI to the cells, and cell death was immediately evaluated by FACS analysis (3).

Zta = settings: SNK6 xenograft, nude mice; intratumoral 50 µM peptide every 2 days from day ~18; tissue day 50; IHC vs CTL; n = 3
Protocol: To measure malignant SNK6 xenograft growth, 100 µl of 1 × 10^5 SNK6 cells in PBS were mixed with 100 µl growth factor-reduced basement membrane matrix (Matrigel™, BD Biosciences) resulting in 200 µl of solution that was injected subcutaneously along the mouse flank at each intended tumor site. Tumor size was measured using a digital caliper and volume was calculated, and mice were randomly divided into four groups (n = 9 per group) when the tumor volume reached 50–100 mm^3 on day ~18 after tumor inoculation and given treatment as follows: Group 1 (control (CTL)) was intratumorally injected with HBSS buffer (5.33 mM KCl, 0.44 mM KH2PO4, 138 mM NaCl, 4 mM NaHCO3, 0.3 mM Na2HPO4, and 5.6 mM glucose, pH 7.3) containing 0.05% DMSO; Group 2 (Tf-D-HKN15) received HBSS buffer containing 0.05% DMSO with 50 µM Tf-D-HKN15 peptides; Group 3 (Tf-D-HKC15) received HBSS buffer containing 0.05% DMSO with 50 µM Tf-D-HKC15 peptides; Group 4 (Tf-D-HKC8) received HBSS buffer containing 0.05% DMSO with 50 µM Tf-D-HKC8 peptides. […] Beginning on the day of inoculation, mouse weight and tumor volume were monitored every 2 days. Mice were monitored for changes in body weight and sacrificed when values fell below 20% of their initial weight; the survival curve was calculated and the final tumor tissues were isolated for biomedical analysis. […]

SNK6 cells [4] = experiment: Cell proliferation by thymidine incorporation; type: cell-based, human; settings: 0.5 µM peptide, 6 h, vs CTL, n = 5 (Fig. 5a)
Protocol: DNA synthesis by [^3H]-thymidine incorporation. Cell proliferation was evaluated as the rate of DNA synthesis by [^3H]-methylthymidine incorporation (17). […] At the end of the treatment, cells were incubated with serum-free media containing ^3H-methylthymidine (0.5 µCi/well) for 2 hours and then washed twice with PBS. Cellular DNA was precipitated using 10% trichloroacetic acid and solubilized with 0.4M NaOH (0.5 ml/well). Incorporation of ^3H-methylthymidine into the DNA was measured in a scintillation counter and was determined as counts per minute (CPM) (8).

SNK6 cells [5] = settings: 0.5 µM peptide, 6 h, vs CTL, n = 3 (Fig. 5g)
Protocol: Immunostaining. […] The cells were then washed three times and the FITC labeled anti-mouse secondary antibody (1:100) was added for blotting for another 1 hour. After thorough washing, the slides were visualized and photographed, the nuclei of cells were stained with 4’,6-diamidino-2-phenylindole dihydrochloride (DAPI, #D9542, from Sigma), and the positive Ki-67 cells were quantitated.

SNK6 xenograft [6] = experiment: Mouse survival, Kaplan–Meier analysis; type: in vivo; settings: nude mice, intratumoral 50 µM peptide every 2 days from day ~18, compared with CTL group, n = 9
Protocol: Statistical analysis. The data was given as mean ± SEM; all of the experiments were performed at least in quadruplicate unless otherwise indicated. One-way ANOVA followed by the Bonferroni post hoc test was used to determine statistical significance of different groups. The mouse survival curve was determined through Kaplan-Meier survival analysis using SPSS 22 software, and a P value < 0.05 was considered significant (8).

Kasumi-1 = experiment: Cell death IC50 by PI staining/FACS; type: cell-based; settings: Human acute myeloblastic leukemia/EBV(−), 0.1–15 µM, 6 h (suspension) or 12 h (adherent cells), mean ± SEM, read-out: Peptide IC50 (µM), cell death, Kasumi-1
Protocol: as §2

MDA-MB-231 = experiment: Cell death IC50 by PI staining/FACS; type: cell-based; settings: Human breast adenocarcinoma/EBV(−), 0.1–15 µM, 6 h (suspension) or 12 h (adherent cells), mean ± SEM, read-out: Peptide IC50 (µM), cell death, MDA-MB-231
Protocol: as §2

P-gp = experiment: Protein level in xenograft tumor tissue (western blot); type: in vivo, mouse; settings: SNK6 xenograft, nude mice; intratumoral 50 µM peptide every 2 days from day ~18; tissue day 50; western blot vs CTL; n = 5
Source text: as §1

EBV EA-D = experiment: as above; type: in vivo, mouse; settings: SNK6 xenograft, nude mice; intratumoral 50 µM peptide every 2 days from day ~18; tissue day 50; western blot vs CTL; n = 5
Source text: as §1

HAIYPRH-LQQAQKEN [Tf-D-HKC8]
EBV Zta protein levels in tumor (EBV Zta): 32% | peptide delivered into SNK6 cells (delivery efficiency) (SNK6 cells [1]): 53.4% | tumor volumes on day 36 (SNK6 xenograft [2]): 36% | tumor volumes on day 48 (SNK6 xenograft [2]): 32% | association of HKDC1 with VDAC1 (HKDC1/VDAC1): 24% | apoptosis rate increase (SNK6 cells [3]): 11.4 fold | Zta gene expression on tumor tissues (IHC) (Zta): 28% | thymidine incorporation (SNK6 cells [4]): 28% | cell proliferation by quantitation of Ki-67 positive cells (SNK6 cells [5]): 27% | mouse survival (SNK6 xenograft [6]): 335% | IC50 (Kasumi-1): 1.8 ± 0.6 µM | IC50 (MDA-MB-231): 11.6 ± 1.1 µM | P-gp protein in tumor (P-gp): 17% | EBV EA-D protein in tumor (EBV EA-D): 38%

HAIYPRH-ITAVAKRLQQAQKEN [Tf-D-HKC15]
EBV Zta protein levels in tumor (EBV Zta): 65% | peptide delivered into SNK6 cells (delivery efficiency) (SNK6 cells [1]): 35.6% | tumor volumes on day 36 (SNK6 xenograft [2]): 63% | tumor volumes on day 48 (SNK6 xenograft [2]): 70% | association of HKDC1 with VDAC1 (HKDC1/VDAC1): 68% | apoptosis rate increase (SNK6 cells [3]): 2.91 fold | Zta gene expression on tumor tissues (IHC) (Zta): 64% | thymidine incorporation (SNK6 cells [4]): 71% | cell proliferation by quantitation of Ki-67 positive cells (SNK6 cells [5]): 70% | mouse survival (SNK6 xenograft [6]): 197% | IC50 (Kasumi-1): 2.7 ± 0.9 µM | IC50 (MDA-MB-231): 14.4 ± 0.8 µM | P-gp protein in tumor (P-gp): 48% | EBV EA-D protein in tumor (EBV EA-D): 61%
